Data as given in US8637508B2, “Heterocyclic derivatives and their use in the treatment of neurological disorders” (Novartis AG, priority 2011, dated 2014).
Where a name gives a salt, the structure may show the parent alone. Read-outs that look alike come from different tables or passages of the source.

Experiments:
[1] = molecular target: human BACE-2 (Homo sapiens (Human), UniProt Q9Y5Z0); experiment: Test 2: Inhibition of human BACE-2; type: biochemical
Source text: Test 2: Inhibition of Human BACE-2

[2] = molecular target: human BACE-1 (Homo sapiens (Human), UniProt P56817); experiment: Test 1: Inhibition of human BACE-1
Sequence of human BACE-1 (P56817 46-457): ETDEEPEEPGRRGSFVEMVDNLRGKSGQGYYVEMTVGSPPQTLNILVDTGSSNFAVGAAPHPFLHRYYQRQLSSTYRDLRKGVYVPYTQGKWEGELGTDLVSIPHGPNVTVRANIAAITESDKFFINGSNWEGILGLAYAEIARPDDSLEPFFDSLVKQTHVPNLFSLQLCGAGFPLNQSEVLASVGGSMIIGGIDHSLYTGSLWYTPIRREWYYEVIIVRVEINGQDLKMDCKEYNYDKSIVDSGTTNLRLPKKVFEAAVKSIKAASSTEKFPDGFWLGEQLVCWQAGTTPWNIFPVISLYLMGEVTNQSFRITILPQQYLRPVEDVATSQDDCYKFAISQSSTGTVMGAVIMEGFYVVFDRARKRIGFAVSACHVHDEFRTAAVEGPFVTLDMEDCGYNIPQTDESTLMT

[3] = mean IC50, recombinant BACE-2, acetate buffer pH 4.5, fluorescence-quenched peptide substrate, read-out: BACE-2 IC50
[4] = read-out: BACE-1 IC50, mean IC50, recombinant BACE-1, acetate buffer pH 4.5, fluorescence-quenched peptide substrate

Sequence of human BACE-2 (Q9Y5Z0 63-473): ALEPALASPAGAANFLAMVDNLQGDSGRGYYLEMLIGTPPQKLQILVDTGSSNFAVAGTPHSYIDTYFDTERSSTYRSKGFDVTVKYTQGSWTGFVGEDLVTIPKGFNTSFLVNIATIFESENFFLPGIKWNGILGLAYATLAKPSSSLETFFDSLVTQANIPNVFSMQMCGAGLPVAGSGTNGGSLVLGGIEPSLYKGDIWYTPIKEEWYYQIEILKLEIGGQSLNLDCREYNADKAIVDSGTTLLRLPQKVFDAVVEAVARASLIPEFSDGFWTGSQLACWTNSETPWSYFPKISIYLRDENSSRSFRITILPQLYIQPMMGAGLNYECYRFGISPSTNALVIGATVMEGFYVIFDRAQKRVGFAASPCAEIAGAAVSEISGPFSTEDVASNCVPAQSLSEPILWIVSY

IC50 [1, 3]	IC50 [2, 4]	Compound	IC50 [1]	IC50 [2]
6500 nM	1500 nM	Cc1cc(C#N)cnc1C(=O)Nc1ccc(F)c([C@@]2(C(F)F)COCC(N)=N2)n1 [Example 39, 5-Cyano-3-methyl-pyridine-2-carboxylic acid [6-((S)-5-amino-3-difluoromethyl-3,6-dihydro-2H-[1,4]oxazin-3-yl)-5-fluoro-pyridin-2-yl]-amide]		
15 nM	93 nM	COc1cnc(C(=O)Nc2ccc(F)c([C@]3(C)CO[C@@](C)(C(F)(F)F)C(N)=N3)n2)c(C)c1 [Example 25, 5-Methoxy-3-methyl-pyridine-2-carboxylic acid [6-((3R,6R)-5-amino-3,6-dimethyl-6-trifluoromethyl-3,6-dihydro-2H-[1,4]oxazin-3-yl)-5-fluoro-pyridin-2-yl]amide]		
41 nM	10 nM	C[C@@]1(c2cccc(NC(=O)c3ncc(C#N)cc3Cl)n2)CO[C@@](C)(C(F)(F)F)C(N)=N1 [Example 20, 3-Chloro-5-cyano-pyridine-2-carboxylic acid [6-((3R,6R)-5-amino-3,6-dimethyl-6-trifluoromethyl-3,6-dihydro-2H-[1,4]oxazin-3-yl)-pyridin-2-yl]-amide]		
82 nM	43 nM	C[C@@]1(c2cccc(NC(=O)c3ncc(C#N)cc3N)n2)CO[C@@](C)(C(F)(F)F)C(N)=N1 [Example 19, 3-Amino-5-cyano-pyridine-2-carboxylic acid [6-((3R,6R)-5-amino-3,6-dimethyl-6-trifluoromethyl-3,6-dihydro-2H-[1,4]oxazin-3-yl)-pyridin-2-yl]-amide]		
24 nM	26 nM	Cc1cc(OC(F)F)cnc1C(=O)Nc1ccc(F)c([C@]2(C)CO[C@@](C)(C(F)(F)F)C(N)=N2)n1 [Example 29, 5-Difluoromethoxy-3-methyl-pyridine-2-carboxylic acid [6-((3R,6R)-5-amino-3,6-dimethyl-6-trifluoromethyl-3,6-dihydro-2H-[1,4]oxazin-3-yl)-5-fluoro-pyridin-2-yl]amide]		
5 nM	13 nM	C[C@@]1(c2cccc(NC(=O)c3ncc(Br)cc3Cl)n2)CO[C@@](C)(C(F)(F)F)C(N)=N1 [Example 22, 5-Bromo-3-chloro-pyridine-2-carboxylic acid [6-((3R,6R)-5-amino-3,6-dimethyl-6-trifluoromethyl-3,6-dihydro-2H-[1,4]oxazin-3-yl)-pyridin-2-yl]-amide]		
160 nM	33 nM	Cc1cc(C#N)cnc1C(=O)Nc1ccc(F)c([C@]2(C(F)F)COCC(N)=N2)n1 [Example 38, 5-Cyano-3-methyl-pyridine-2-carboxylic acid [6-((R)-5-amino-3-difluoromethyl-3,6-dihydro-2H-[1,4]oxazin-3-yl)-5-fluoro-pyridin-2-yl]-amide]		
7 nM	45 nM	Cc1cc(OCF)cnc1C(=O)Nc1ccc(F)c([C@]2(C)CO[C@@](C)(C(F)(F)F)C(N)=N2)n1 [Example 32, 5-Fluoromethoxy-3-methyl-pyridine-2-carboxylic acid [6-((3R,6R)-5-amino-3,6-dimethyl-6-trifluoromethyl-3,6-dihydro-2H-[1,4]oxazin-3-yl)-5-fluoro-pyridin-2-yl]amide]		
330 nM	820 nM	Cc1cnc(C(=O)Nc2ccc(F)c([C@]3(C)CO[C@@](C)(C(F)(F)F)C(N)=N3)n2)cn1 [Example 33, 5-Methyl-pyrazine-2-carboxylic acid [6-((3R,6R)-5-amino-3,6-dimethyl-6-trifluoromethyl-3,6-dihydro-2H-[1,4]oxazin-3-yl)-5-fluoro-pyridin-2-yl]amide]		
170 nM	42 nM	N#Cc1cnc(C(=O)Nc2ccc(F)c([C@]3(C(F)F)COCC(N)=N3)n2)c(Cl)c1 [Example 40, 3-Chloro-5-cyano-pyridine-2-carboxylic acid [6-((R)-5-amino-3-difluoromethyl-3,6-dihydro-2H-[1,4]oxazin-3-yl)-5-fluoro-pyridin-2-yl]-amide]		
5 nM	10 nM	C[C@@]1(c2nc(NC(=O)c3nn(C(F)F)cc3Cl)ccc2F)CO[C@@](C)(C(F)(F)F)C(N)=N1 [Example 46, 4-Chloro-1-difluoromethyl-1H-pyrazole-3-carboxylic acid [6-((3R,6R)-5-amino-3,6-dimethyl-6-trifluoromethyl-3,6-dihydro-2H-[1,4]oxazin-3-yl)-5-fluoro-pyridin-2-yl]-amide]		
130 nM	140 nM	NC1=NC(CF)(c2cc(NC(=O)c3ccc(Br)cn3)cnc2Cl)COC1 (centres unmarked) [Example 18, 5-Bromo-pyridine-2-carboxylic acid [5-(5-amino-3-fluoromethyl-3,6-dihydro-2H-[1,4]oxazin-3-yl)-6-chloro-pyridin-3-yl]-amide hydrochloride]		

Continued, molecule first:

Compound	IC50 [1, 3]	IC50 [2, 4]	IC50 [1]	IC50 [2]
[2H]c1nc(C(=O)Nc2cccc([C@]3(C)CO[C@@](C)(C(F)(F)F)C(N)=N3)n2)c(C([2H])([2H])[2H])c([2H])c1Cl [Example 21, 5-Chloro-4,6-dideuterio-3-trideuteriomethyl-pyridine-2-carboxylic acid [6-((3R,6R)-5-amino-3,6-dimethyl-6-trifluoromethyl-3,6-dihydro-2H-[1,4]oxazin-3-yl)-pyridin-2-yl]-amide]			8 nM	31 nM
NC(=S)c1ccc(C(=O)Nc2cccc(C3(CF)COCC(N)=N3)n2)nc1 (centres unmarked) [Example 7, 5-{6-[(5-Thiocarbamoyl-pyridine-2-carbonyl)-amino]-pyridin-2-yl}-5-fluoromethyl-5,6-dihydro-2H-[1,4]oxazin-3-yl-ammonium trifluoro-acetate]	8700 nM	2100 nM		
Cc1cc(C(N)=S)cnc1C(=O)Nc1cc(C2(CF)COCC(N)=N2)ccn1 (centres unmarked) [Example 15, 5-Fluoromethyl-5-{2-[(3-methyl-5-thiocarbamoyl-pyridine-2-carbonyl)-amino]-pyridin-4-yl}-5,6-dihydro-2H-[1,4]oxazin-3-yl-ammonium trifluoro-acetate]			> 10000 nM	> 10000 nM
COCCn1ccc2nc(C(=O)Nc3ccc(F)c([C@]4(C)CO[C@@](C)(C(F)(F)F)C(N)=N4)n3)c(N)nc21 [Example 43, 3-Amino-5-(2-methoxy-ethyl)-5H-pyrrolo[2,3-b]pyrazine-2-carboxylic acid [6-((3R,6R)-5-amino-3,6-dimethyl-6-trifluoromethyl-3,6-dihydro-2H-[1,4]oxazin-3-yl)-5-fluoro-pyridin-2-yl]amide]		1200 nM	> 10000 nM	
NC1=NC(CF)(c2ccnc(NC(=O)c3ccc(Cl)cn3)c2)COC1 (centres unmarked) [Example 14, 5-{2-[(5-Chloro-pyridine-2-carbonyl)-amino]-pyridin-4-yl}-5-fluoromethyl-5,6-dihydro-2H-[1,4]oxazin-3-yl-ammonium trifluoro-acetate]	4800 nM	8100 nM		
[2H]c1nc(C(=O)Nc2cc(C3(CF)COCC(N)=N3)ccn2)c(C([2H])([2H])[2H])c([2H])c1Cl (centres unmarked) [Example 13, 5-{2-[(5-Chloro-4,6-dideutero-3-trideuteromethyl-pyridine-2-carbonyl)-amino]-pyridin-4-yl}-5-fluoromethyl-5,6-dihydro-2H-[1,4]oxazin-3-yl-ammonium acetate]			1500 nM	
C[C@@]1(c2nc(NC(=O)c3nc4ccn(CC(F)F)c4nc3N)ccc2F)CO[C@@](C)(C(F)(F)F)C(N)=N1 [Example 45, 3-Amino-5-(2,2-difluoro-ethyl)-5H-pyrrolo[2,3-b]pyrazine-2-carboxylic acid [6-((3R,6R)-5-amino-3,6-dimethyl-6-trifluoromethyl-3,6-dihydro-2H-[1,4]oxazin-3-yl)-5-fluoro-pyridin-2-yl]amide]			> 10000 nM	> 10000 nM
COCCn1ccc2nc(C(=O)Nc3ccc(F)c([C@]4(C)CO[C@@](C)(C(F)(F)F)C(N)=N4)n3)c(Cl)cc21 [Example 48, 6-Chloro-1-(2-methoxy-ethyl)-1H-pyrrolo[3,2-b]pyridine-5-carboxylic acid [6-((3R,6R)-5-amino-3,6-dimethyl-6-trifluoromethyl-3,6-dihydro-2H-[1,4]oxazin-3-yl)-5-fluoro-pyridin-2-yl]-amide]		7300 nM	> 10000 nM	
C[C@@]1(c2nc(NC(=O)c3nc4ccn(CC(F)F)c4cc3Cl)ccc2F)CO[C@@](C)(C(F)(F)F)C(N)=N1 [Example 47, 6-Chloro-1-(2,2-difluoro-ethyl)-1H-pyrrolo[3,2-b]pyridine-5-carboxylic acid [6-((3R,6R)-5-amino-3,6-dimethyl-6-trifluoromethyl-3,6-dihydro-2H-[1,4]oxazin-3-yl)-5-fluoro-pyridin-2-yl]-amide]	5400 nM			> 10000 nM
CC1(c2cccc(NC(=O)c3ccc(Br)cn3)n2)COCC(N)=N1 (racemic) [Example 2, 5-Bromo-pyridine-2-carboxylic acid [6-(5-amino-3-methyl-3,6-dihydro-2H-[1,4]-oxazin-3-yl)-pyridin-2-yl]-amide]	360 nM	790 nM		
C[C@@]1(c2cccc(NC(=O)c3ccc(C#N)cn3)n2)CO[C@@](C)(C(F)(F)F)C(N)=N1 [Example 10, 5-Cyano-pyridine-2-carboxylic acid [6-((3R,6R)-5-amino-3,6-dimethyl-6-trifluoromethyl-3,6-dihydro-2H-[1,4]oxazin-3-yl)-pyridin-2-yl]-amide]		39 nM		
[2H]c1nc(C(=O)Nc2cccc(C3(CF)COCC(N)=N3)n2)c(C([2H])([2H])[2H])c([2H])c1Cl (centres unmarked) [Example 6, 5-{6-[(4,6-Dideutero-5-chloro-3-trideuteromethyl-pyridine-2-carbonyl)-amino]-pyridin-2-yl}-5-fluoromethyl-5,6-dihydro-2H-[1,4]oxazin-3-yl-ammonium trifluoro acetate]			240 nM	550 nM
C[C@]1(c2cccc(NC(=O)c3ccc(C#N)cn3)n2)CO[C@@](C)(C(F)(F)F)C(N)=N1 [Example 9, 5-Cyano-pyridine-2-carboxylic acid [6-((3S,6R)-5-amino-3,6-dimethyl-6-trifluoromethyl-3,6-dihydro-2H-[1,4]oxazin-3-yl)-pyridin-2-yl]-amide hydrochloride]		6200 nM		
